Assays:
[1] = test system: pancreatic adenocarcinoma (PDAC) tumors; test: Genetically engineered mouse model (GEMM) for pancreatic cancer; type: in vivo
Description: (§1) […]. Cancer Res. 12(18):5312-5328; US 2007/0292948, both of which are incorporated by reference in their entirety). The surprising and unexpected results from these experiments may predict the clinical response of certain patient populations having select tumor types and mutations to such combination therapy with Formula I and II compounds and chemotherapeutic agents.
A GEMM for pancreatic cancer (Aguirre et al. (2003) Genes & Development 17:3112-3126) encompasses the mutations found in a majority of patients with this disease.

Oral bioavailability = settings: in vivo
[2] = test system: MDA-MB-361.1 breast tumor cell xenografts; test: In vivo tumor xenograft; design: species or system mouse; settings: for tumor inhibition: docetaxel 5 mg/kg iv day 1, 5, 9
Procedure: (§2) The efficacy of the combinations of the invention may be measured in vivo by implanting allografts or xenografts of cancer cells in rodents and treating the tumor-bearing animals with the combinations. Variable results are to be expected depending on the cell line, the presence or absence of certain mutations in the tumor cells, the sequence of administration of Formula I or II compound and chemotherapeutic agent, dosing regimen, and other factors. Subject mice were treated with drug(s) or control (Vehicle) and monitored over several weeks or more to measure the time to tumor doubling, log cell kill, and tumor inhibition (Example 17).
(§3) Animals suitable for transgenic experiments can be obtained from standard commercial sources. Groups of female CD-1 nude mice (Charles River Laboratory) were implanted subcutaneously in the hind flank with 20 million MDA-MB-361.1 (PI3K mutant) breast cancer cells with matrigel and 0.36 mg of estrogen implants per mouse. Groups of female NMRI nu/nu mice (Janvier) were implanted with 150 mm3 fragments of MAXF 401 (Her2+/ER+/PR^+) or MAXF 1162 (Her2+/ER+/PR^+) primary breast tumors (biopsied directly from two individual breast cancer patients) with matrigel and 0.36 mg of estrogen pellets per mouse. Groups of female HRLN nu/nu (Harlan Labs) were implanted with 10 million MCF-7 (PI3K mutant) breast cancer cells with matrigel and 0.36 mg of estrogen pellets per mouse. Groups of female athymic nu/nu mice (Charles River Laboratory) were implanted with 15 million NCI-H2122 (K-Ras mutant) non-small cell lung cancer cells and matrigel per mouse. Mouse xenografts were dosed at day 1 with drug, drug combination, or vehicle according to the schedule specified for each tumor model. Docetaxel was administered intravenously, B20-1.4 was administered intraperitonealy and Formula Ia and IIa were delivered per os by oral gavage. Tumor sizes were recorded twice weekly over the course of the study. Mouse body weights were also recorded twice weekly, and the mice were observed regularly. Tumor volume was measured in two dimensions (length and width) using Ultra Cal-IV calipers (Model 54-10-111; Fred V. Fowler Co., Inc.; Newton, Mass.) and analyzed using Excel v.11.2 (Microsoft Corporation; Redmond, Wash.). Tumor inhibition graphs were plotted using KaleidaGraph, Version 3.6 (Synergy Software; Reading, Pa.). The tumor volume was calculated with formula: Tumor size (mm^3)=(longer measurement×shorter measurement^2)×0.5
(§4) The percent tumor growth inhibition (% INH) at the end of study (EOS) was calculated using formula: % INH=100×(EOS mean volume of tumors in animals given vehicle−EOS mean volume of tumors in animals given the drug)/EOS mean volume of tumors in animals given vehicle.
(§5) Tumor incidence (TI) was determined based on the number of measurable tumors remaining in each group at the end of the study. A partial response (PR) was defined as a>50% but <100% reduction in tumor volume, compared with the starting tumor volume, observed on any day of the study. A complete response (CR) was defined as a 100% reduction in tumor volume, compared with the initial tumor volume, observed on any day of the study. Data were analyzed and p-values were determined using the Dunnett's test with JMP statistical software, version 5.1.2 (SAS Institute; Cary, N.C.). Individual tumor volumes at end of study and mean tumor volume±SEM values were calculated using JMP statistical software, version 5.1.2. Body weight data were graphed based on the mean percentage of change from initial body weights±SEM.

[3] = test system: NCI-H2122 non-small cell lung cancer (NSCLC) tumor xenografts; test: In vivo tumor xenograft; design: species or system mouse; settings: erlotinib 75 mg/kg
Procedure: as §2, §3, §4, §5

[4] = test system: MAXF 401 primary breast tumor explant xenografts; test: In vivo tumor xenograft; design: species or system mouse
Procedure: as §2, §3, §4, §5

[5] = test system: MAXF 1162 primary breast tumor explant xenografts; test: In vivo tumor xenograft; design: species or system mouse; settings: after 49 days, docetaxel 15 mg/kg iv day 0, 11, 22, 44
Procedure: as §2, §3, §4, §5

[6] = test system: MCF-7 (PI3K mutant) breast tumor cell xenografts; test: In vivo tumor xenograft; design: species or system mouse; settings: after 21 days; for tumor inhibition: mB20-4.1 5 mg/kg ip twice a week 3 weeks
Procedure: as §2, §3, §4, §5

[7] = test system: K-ras-driven NSCLC tumors; test: K-ras-driven NSCLC GEMM; type: in vivo, mouse
Description: as §1

[8] = test system: small cell lung cancer (SCLC) tumors; test: Genetically engineered mouse model (GEMM) for SCLC; type: in vivo
Description: as §1

PKA = settings: concentrations as high as 50 μM; cited from earlier work
SGK = target: T1, SGK (Homo sapiens, UniProt O00141); settings: concentrations as high as 50 μM; cited from earlier work
T1 sequence (O00141 1-431): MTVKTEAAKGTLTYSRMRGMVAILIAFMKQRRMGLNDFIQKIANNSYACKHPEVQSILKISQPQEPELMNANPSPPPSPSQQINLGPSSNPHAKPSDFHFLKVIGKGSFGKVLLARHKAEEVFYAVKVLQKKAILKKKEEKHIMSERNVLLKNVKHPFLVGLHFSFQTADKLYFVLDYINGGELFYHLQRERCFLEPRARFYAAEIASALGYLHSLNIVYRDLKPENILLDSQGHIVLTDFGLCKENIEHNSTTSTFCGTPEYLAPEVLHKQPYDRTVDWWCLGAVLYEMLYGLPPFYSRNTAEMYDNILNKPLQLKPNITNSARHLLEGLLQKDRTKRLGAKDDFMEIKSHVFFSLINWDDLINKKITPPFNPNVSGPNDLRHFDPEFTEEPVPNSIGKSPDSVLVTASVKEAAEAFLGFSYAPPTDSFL

PKC = settings: concentrations as high as 50 μM; cited from earlier work
pERK = settings: cited from earlier work
[9] = test system: pAkt (Ser473) in MDA-MB-361 cells; test: Phospho AKT induction assay; type: cell-based; settings: synergistic cell line MDA-MB-361, EC80 dosing, 1 hr to 24 hr
Procedure: Phospho Akt (pAkt) levels can be measured by the method described in Example 18. Low CI correlates with the effect of the chemotherapeutic to induce an increase in pAkt. Levels of pAkt (Ser473) were determined using bead kits from Biosource (Carlsbad, Calif.) and the Luminex Bio-Plex system (Bio-Rad, Hercules, Calif.).
In a 6-well tissue culture plate cells were seeded at 5×10^5 cells per well overnight. Cells were treated with an EC80 of the chemotherapeutic agent. Following treatment, cells were washed once with cold PBS and lysed in 1× Cell Extraction Buffer from Biosource (Carlsbad, Calif.) supplemented with protease inhibitors (Roche, Mannheim, Germany), 1 mM PMSF, and Phosphatase Inhibitor Cocktails 1 and 2 from Sigma (St. Louis, Mo.). Determination of protein concentration was performed using the Pierce BCA Protein Assay Kit (Rockford, Ill.). Levels of pAkt (Ser^473) and total Akt were assessed using bead kits from Biosource (Carlsbad, Calif.) and the Luminex Bio-Plex system (Bio-Rad, Hercules, Calif.).

[10] = FIG. 22, after 21 days, CD-1 nude mice, Formula Ia 150 mg/kg oral daily 21 days
[11] = FIG. 22, after 41 days, Formula Ia 150 mg/kg oral daily 21 days
[12] = FIG. 22, after 41 days, groups of 11 (Formula Ia), 10 (docetaxel), 9 (combination) animals
[13] = FIG. 24, day 28, NMRI nu/nu mice, Formula Ia 100 mg/kg oral day 0-4, 11-17, 21-28, docetaxel 15 mg/kg iv day 0 and 11
[14] = FIG. 24, end of the study (day 50)
[15] = FIG. 26, Formula Ia 100 mg/kg oral
[16] = FIG. 23, after 21 days, Formula IIa 37.5 mg/kg oral daily 21 days
[17] = FIG. 23, after 21 days, groups of 10 animals
[18] = FIG. 25, day 28, Formula IIa 100 mg/kg oral day 0-3, 11-17, 21-28, docetaxel 15 mg/kg iv day 0 and 11
[19] = FIG. 25, end of the study (day 50)
[20] = FIG. 27, Formula IIa 100 mg/kg oral

CS(=O)(=O)N1CCN(Cc2cc3nc(-c4cccc5[nH]ncc45)nc(N4CCOCC4)c3s2)CC1 [Formula Ia, 4-(2-(1H-indazol-4-yl)-6-((4-(methylsulfonyl)piperazin-1-yl)methyl)thieno[3,2-d]pyrimidin-4-yl)morpholine]
survival [1]: modest (not statistically significant) effect on survival | tumor growth via ultrasound [1]: initial decrease in tumor growth | oral bioavailability (Oral bioavailability): orally bioavailable | tumor inhibition [2, 10]: 75% | tumor inhibition [2, 11]: 66% | partial regressions [2, 12]: 3 | tumor inhibition ([3]; FIG. 28, after 20 days, Formula Ia 50 mg/kg, oral daily 16 days): 17% | tumor inhibition [4, 13]: 49% | tumor inhibition [4, 14]: 10% | tumor inhibition [5, 15]: 54% | partial regressions ([6]; FIG. 30): 0 | tumor inhibition ([6]; FIG. 30, HRLN nu/nu mice, Formula Ia 150 mg/kg oral daily 21 days): 36% | survival [7]: no effect on survival | tumor growth as measured by microCT imaging [7]: minimally affected tumor growth | survival [8]: did have an effect (significant hazard ratio) on survival | tumor growth as assessed by microCT imaging [8]: did not show effects on tumor growth

(2R,3S)-N-carboxy-3-phenylisoserine, N-tert-butyl ester, 13-ester with 5,20-epoxy-1,2,4,7,10,13-hexahydroxytax-11-en-9-one 4-acetate 2-benzoate, trihydrate [docetaxel, reference compound]
tumor inhibition [2, 10]: 78% | tumor inhibition [2, 11]: 26% | partial regressions [2, 12]: 2 | tumor inhibition [2, 16]: 35% | partial regressions [2, 17]: 3 | tumor inhibition [4, 13]: 95% | tumor inhibition [4, 14]: 68% | tumor inhibition [4, 18]: 95% | tumor inhibition [4, 19]: 68% | tumor inhibition [5, 15]: 36% | tumor inhibition [5, 20]: 36%

O=c1[nH]c2ccccc2n1C1CCN(Cc2ccc(-c3nc4cc5[nH]cnc5cc4nc3-c3ccccc3)cc2)CC1 [Akti-1/2, 1,3-dihydro-1-(1-((4-(6-phenyl-1H-imidazo[4,5-g]quinoxalin-7-yl)phenyl)methyl)-4-piperidinyl)-2H-benzimidazol-2-one]
inhibitory effect (PKA): does not exhibit any inhibitory effect | inhibitory effect (SGK): does not exhibit any inhibitory effect | inhibitory effect (PKC): does not exhibit any inhibitory effect

Cc1c(CN2CCN(C(=O)[C@H](C)O)CC2)sc2c(N3CCOCC3)nc(-c3cnc(N)nc3)nc12 [Formula Ib, (S)-1-(4-((2-(2-aminopyrimidin-5-yl)-7-methyl-4-morpholinothieno[3,2-d]pyrimidin-6-yl)methyl)piperazin-1-yl)-2-hydroxypropan-1-one]
oral bioavailability (Oral bioavailability): orally bioavailable

OCCn1cc(-c2ccc3c(c2)CC/C3=N\O)c(-c2ccncc2)n1 [HPPD, 5-(1-(2-hydroxyethyl)-3-(pyridin-4-yl)-1H-pyrazol-4-yl)-2,3-dihydro-1H-inden-1-one oxime]
IC50 (pERK): 87 nM

Nc1ccn([C@@H]2O[C@H](CO)[C@@H](O)C2(F)F)c(=O)n1 [Gemcitabine, 4-amino-1-[3,3-difluoro-4-hydroxy-5-(hydroxymethyl)tetrahydrofuran-2-yl]-1H-pyrimidin-2-one]
pAkt levels [9]: increased pAkt levels

CS(=O)(=O)N1CCN(Cc2cc3c(N4CCOCC4)nc(-c4cccc5[nH]ncc45)nc3s2)CC1 [Formula IIa, 4-(2-(1H-indazol-4-yl)-6-((4-(methylsulfonyl)piperazin-1-yl)methyl)thieno[2,3-d]pyrimidin-4-yl)morpholine]
oral bioavailability (Oral bioavailability): orally bioavailable | tumor inhibition [2, 16]: 30% | partial regressions [2, 17]: 2 | tumor inhibition ([3]; FIG. 29, end of study, Formula IIa 50 mg/kg, oral daily 14 days): 27% | tumor inhibition [4, 18]: 82% | tumor inhibition [4, 19]: 51% | tumor inhibition [5, 20]: 32% | partial regressions ([6]; FIG. 31): 0 | tumor inhibition ([6]; FIG. 31, Formula IIa 100 mg/kg oral daily 21 days): 5%

From patent US8247397B2, “Combinations of phosphoinositide 3-kinase inhibitor compounds and chemotherapeutic agents, and methods of use” (Genentech, Inc., priority 2007, dated 2012)
